According to ChEMBL document CHEMBL1201862, “PubChem BioAssay data set” (2004):
Several values for one entry are separate records, joined by “and”; a condition that tells them apart may be missing. Equal entries are not always repeated. Activity calls are given as the source filed them.

How the values were obtained:
[1] = molecular target: T1, Voltage-gated N-type calcium channel alpha-1B subunit/Amyloid beta A4 precursor protein-binding family A member 1 (Homo sapiens, UniProt Q00975+Q02410); type: protein assay
T1 sequence (Q00975 whole entry): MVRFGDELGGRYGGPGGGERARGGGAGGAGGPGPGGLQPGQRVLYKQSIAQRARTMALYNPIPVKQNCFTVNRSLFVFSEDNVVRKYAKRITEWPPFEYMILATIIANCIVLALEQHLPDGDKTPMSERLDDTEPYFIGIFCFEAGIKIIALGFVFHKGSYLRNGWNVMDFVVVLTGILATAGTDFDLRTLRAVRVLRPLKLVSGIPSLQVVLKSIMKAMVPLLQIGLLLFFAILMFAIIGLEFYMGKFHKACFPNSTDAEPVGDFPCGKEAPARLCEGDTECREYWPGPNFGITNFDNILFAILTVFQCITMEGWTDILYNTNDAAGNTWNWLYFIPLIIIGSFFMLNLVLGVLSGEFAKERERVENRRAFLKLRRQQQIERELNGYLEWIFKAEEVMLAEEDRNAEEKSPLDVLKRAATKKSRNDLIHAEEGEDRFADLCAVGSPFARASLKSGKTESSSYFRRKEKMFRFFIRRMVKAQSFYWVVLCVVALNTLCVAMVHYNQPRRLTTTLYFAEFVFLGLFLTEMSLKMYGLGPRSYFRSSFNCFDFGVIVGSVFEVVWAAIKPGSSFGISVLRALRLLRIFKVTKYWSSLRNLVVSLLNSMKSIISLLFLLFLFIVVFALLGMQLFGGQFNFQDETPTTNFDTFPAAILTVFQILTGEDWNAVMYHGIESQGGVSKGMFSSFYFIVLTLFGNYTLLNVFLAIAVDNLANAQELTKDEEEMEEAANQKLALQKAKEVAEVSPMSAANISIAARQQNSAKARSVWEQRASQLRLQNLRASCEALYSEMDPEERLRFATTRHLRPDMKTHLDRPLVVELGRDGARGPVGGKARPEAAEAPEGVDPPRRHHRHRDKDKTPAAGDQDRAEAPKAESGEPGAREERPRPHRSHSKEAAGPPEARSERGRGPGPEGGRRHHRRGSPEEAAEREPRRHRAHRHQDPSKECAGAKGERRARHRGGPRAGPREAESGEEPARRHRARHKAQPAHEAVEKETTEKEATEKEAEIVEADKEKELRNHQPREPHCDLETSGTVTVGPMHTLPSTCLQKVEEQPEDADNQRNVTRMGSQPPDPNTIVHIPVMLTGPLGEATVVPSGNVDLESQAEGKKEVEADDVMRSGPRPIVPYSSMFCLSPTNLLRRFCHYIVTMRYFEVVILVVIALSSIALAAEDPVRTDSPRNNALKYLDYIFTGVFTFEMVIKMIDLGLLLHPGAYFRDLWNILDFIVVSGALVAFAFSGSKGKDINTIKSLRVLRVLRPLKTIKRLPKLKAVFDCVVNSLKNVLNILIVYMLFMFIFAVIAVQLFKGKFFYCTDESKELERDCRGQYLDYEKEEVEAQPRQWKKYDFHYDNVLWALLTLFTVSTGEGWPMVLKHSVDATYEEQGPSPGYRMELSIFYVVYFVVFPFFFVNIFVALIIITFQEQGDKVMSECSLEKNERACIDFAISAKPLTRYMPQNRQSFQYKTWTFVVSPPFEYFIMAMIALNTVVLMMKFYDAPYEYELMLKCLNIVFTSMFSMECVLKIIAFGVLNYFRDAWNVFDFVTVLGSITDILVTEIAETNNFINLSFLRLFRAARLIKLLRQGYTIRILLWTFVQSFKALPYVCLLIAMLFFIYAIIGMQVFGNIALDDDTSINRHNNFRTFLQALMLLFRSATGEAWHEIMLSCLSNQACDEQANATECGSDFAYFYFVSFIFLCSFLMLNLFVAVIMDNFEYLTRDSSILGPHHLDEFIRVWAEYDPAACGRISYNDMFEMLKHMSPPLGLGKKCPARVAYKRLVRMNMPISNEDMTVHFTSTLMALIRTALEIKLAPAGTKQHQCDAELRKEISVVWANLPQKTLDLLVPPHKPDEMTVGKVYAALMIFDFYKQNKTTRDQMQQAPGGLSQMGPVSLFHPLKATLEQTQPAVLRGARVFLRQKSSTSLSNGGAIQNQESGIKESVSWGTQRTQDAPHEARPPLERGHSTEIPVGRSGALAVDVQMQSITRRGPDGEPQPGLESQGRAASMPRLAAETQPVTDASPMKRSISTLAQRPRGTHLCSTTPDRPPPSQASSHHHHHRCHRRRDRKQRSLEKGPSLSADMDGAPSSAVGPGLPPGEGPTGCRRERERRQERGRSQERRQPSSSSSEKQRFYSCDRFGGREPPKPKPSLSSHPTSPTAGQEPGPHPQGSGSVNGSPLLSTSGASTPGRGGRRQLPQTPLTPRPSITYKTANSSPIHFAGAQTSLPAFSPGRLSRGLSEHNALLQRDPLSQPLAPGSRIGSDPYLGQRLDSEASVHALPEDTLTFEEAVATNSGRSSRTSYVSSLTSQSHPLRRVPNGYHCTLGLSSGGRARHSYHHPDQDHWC
T1 sequence (Q02410 whole entry): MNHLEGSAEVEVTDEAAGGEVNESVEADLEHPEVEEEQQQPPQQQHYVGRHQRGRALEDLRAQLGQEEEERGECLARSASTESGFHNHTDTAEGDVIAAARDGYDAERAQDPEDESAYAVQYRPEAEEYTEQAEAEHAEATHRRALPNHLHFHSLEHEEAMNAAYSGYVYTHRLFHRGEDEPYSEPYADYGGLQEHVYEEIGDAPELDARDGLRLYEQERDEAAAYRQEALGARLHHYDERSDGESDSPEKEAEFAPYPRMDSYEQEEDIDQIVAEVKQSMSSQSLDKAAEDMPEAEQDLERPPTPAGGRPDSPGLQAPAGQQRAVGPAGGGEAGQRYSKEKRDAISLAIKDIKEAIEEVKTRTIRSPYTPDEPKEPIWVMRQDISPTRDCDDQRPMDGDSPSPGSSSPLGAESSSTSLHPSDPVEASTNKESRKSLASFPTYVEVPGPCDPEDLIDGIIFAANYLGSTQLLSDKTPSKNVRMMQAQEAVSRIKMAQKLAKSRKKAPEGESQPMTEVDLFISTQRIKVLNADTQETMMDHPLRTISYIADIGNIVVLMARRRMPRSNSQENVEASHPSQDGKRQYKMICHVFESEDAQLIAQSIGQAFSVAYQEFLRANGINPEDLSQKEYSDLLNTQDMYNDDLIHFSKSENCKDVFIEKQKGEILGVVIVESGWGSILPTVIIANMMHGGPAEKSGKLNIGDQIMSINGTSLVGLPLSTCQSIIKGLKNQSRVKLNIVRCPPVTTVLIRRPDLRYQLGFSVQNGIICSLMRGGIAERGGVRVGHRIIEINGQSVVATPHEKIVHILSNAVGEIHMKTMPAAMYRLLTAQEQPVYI

[2] = viability of HCT116 lacking mutant beta-catenin – cell-based, human colon tumor, dose response (AID 1045); type: functional;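 also: HCT116 colon tumor cells with beta catenin knocked out; cells exposed to compound for 60 hours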
[3] = molecular target: T1, Voltage-gated N-type calcium channel alpha-1B subunit/Amyloid beta A4 precursor protein-binding family A member 1; type: protein assay; remark: listed apart in the source
Large T antigen = Large T antigen (Simian virus 40, UniProt P03070); type: functional, Betapolyomavirus macacae;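 also: Confirmatory-stage PubChem screen for compounds that inhibit SV40 T antigen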
[4] = viability of PTEN-deleted HCT116 cells – cell-based, HCT116 PTEN knockout, dose response (AID 1047); type: functional;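 also: HCT116 colon tumor cells with PTEN knocked out; cells exposed to compound for 60 hours before readout; potency for loss of cell viability measured by luminescence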
[5] = molecular target: T2, Short transient receptor potential channel 4 (Mus musculus, UniProt Q9QUQ5); assay: block of DAMGO-driven TRPC4 calcium entry – cell-based, HEK293 TRPC4/mu-opioid, Fluo-4 calcium, dose response (AID 434942); type: functional;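 also: potency of inhibitors blocking the TRPC4 calcium response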
T2 sequence (Q9QUQ5 whole entry): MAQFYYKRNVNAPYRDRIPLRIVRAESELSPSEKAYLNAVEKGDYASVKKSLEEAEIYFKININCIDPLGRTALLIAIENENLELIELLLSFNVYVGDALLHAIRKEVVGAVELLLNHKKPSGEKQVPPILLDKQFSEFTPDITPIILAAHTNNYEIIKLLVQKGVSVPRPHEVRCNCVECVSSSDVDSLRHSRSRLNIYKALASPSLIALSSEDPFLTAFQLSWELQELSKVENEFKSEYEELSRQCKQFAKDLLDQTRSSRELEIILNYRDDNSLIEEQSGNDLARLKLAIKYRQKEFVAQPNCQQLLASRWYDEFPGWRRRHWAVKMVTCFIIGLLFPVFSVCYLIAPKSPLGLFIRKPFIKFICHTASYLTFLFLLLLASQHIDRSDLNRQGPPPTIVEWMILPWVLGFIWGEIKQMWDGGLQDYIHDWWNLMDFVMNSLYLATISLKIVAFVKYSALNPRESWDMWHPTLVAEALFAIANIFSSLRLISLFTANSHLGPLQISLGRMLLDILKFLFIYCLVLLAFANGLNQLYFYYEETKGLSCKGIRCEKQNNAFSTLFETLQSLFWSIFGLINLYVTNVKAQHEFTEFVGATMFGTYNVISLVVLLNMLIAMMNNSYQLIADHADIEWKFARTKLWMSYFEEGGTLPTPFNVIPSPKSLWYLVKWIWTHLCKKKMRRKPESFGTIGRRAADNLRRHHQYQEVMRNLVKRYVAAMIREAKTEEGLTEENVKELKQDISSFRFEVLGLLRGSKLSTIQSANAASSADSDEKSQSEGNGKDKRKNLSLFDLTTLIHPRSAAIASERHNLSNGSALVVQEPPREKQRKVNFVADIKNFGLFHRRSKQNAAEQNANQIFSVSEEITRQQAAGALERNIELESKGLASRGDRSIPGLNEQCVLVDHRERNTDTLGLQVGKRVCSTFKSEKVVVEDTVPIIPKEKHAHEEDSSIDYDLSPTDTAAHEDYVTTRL

HEK293 [6] = assay: cells; type: functional, cell-based; conditions: Homo sapiens
[7] = viability loss of HPDE-C7K cells – cell-based, fluorescence, HTS, primary screen (AID 431); type: functional; conditions: Homo sapiens
HEK293 [8] = assay: cells; type: functional, cell-based; conditions: Homo sapiens; remark: listed apart in the source
[9] = molecular target: Nucleotide-binding oligomerization domain-containing protein 2 (Homo sapiens, UniProt Q9HC29); assay: inhibition of NOD2-driven NF-kB reporter – cell-based, luminescence, uHTS, HEK293 (AID 1566); type: functional
Nucleotide-binding oligomerization domain-containing protein 2, sequence (Q9HC29 whole entry, the tested form may be a part): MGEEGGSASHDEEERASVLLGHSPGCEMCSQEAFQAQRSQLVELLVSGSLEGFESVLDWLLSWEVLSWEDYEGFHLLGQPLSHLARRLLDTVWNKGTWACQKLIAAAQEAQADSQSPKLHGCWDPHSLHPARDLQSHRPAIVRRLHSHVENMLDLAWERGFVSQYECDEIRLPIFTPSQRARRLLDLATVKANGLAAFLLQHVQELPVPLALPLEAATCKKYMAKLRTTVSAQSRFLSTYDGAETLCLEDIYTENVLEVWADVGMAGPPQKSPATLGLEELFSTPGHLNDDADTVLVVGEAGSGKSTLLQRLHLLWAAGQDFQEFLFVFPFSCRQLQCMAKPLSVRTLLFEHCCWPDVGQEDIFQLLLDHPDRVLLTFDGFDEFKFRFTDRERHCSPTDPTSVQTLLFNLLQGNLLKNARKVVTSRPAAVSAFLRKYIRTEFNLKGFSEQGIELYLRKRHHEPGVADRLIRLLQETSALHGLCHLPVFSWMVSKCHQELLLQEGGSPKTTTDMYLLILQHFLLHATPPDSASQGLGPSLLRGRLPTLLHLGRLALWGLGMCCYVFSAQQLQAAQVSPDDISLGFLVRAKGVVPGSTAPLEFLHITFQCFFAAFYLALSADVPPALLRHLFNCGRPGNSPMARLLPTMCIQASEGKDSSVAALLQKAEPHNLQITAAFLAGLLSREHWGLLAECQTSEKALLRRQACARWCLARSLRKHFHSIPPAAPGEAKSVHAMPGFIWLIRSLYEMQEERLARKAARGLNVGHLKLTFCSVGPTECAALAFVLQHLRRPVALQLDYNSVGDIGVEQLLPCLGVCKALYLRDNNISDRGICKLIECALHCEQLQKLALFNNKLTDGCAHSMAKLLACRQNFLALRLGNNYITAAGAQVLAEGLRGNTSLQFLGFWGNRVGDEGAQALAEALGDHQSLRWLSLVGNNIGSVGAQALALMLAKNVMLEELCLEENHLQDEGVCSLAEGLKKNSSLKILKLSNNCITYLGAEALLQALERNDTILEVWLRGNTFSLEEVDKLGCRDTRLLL

HEK293 [10] = assay: inhibition of NOD1-driven NF-kB reporter – cell-based, luminescence, uHTS, primary screen (AID 1578); type: functional; conditions: Homo sapiens
[11] = HPDE-C7 pancreatic duct cell viability loss – fluorescence, HTS (AID 430); type: functional, cell-based; conditions: Homo sapiens
HEK293 [12] = assay: cells; type: functional, cell-based; conditions: Homo sapiens; remark: listed apart in the source
HEK293 [13] = assay: NOD2 signaling inhibitors in MDP-stimulated cells, cell-based, uHTS, luminescence (AID 2001); type: functional; conditions: Homo sapiens
[14] = molecular target: T3, Microphthalmia-associated transcription factor (Homo sapiens, UniProt O75030); assay: reducers of TRPM1 reporter luminescence, concentration series – cell-based, SK-MEL-5, cherry-picked, set 3, MITF inhibitor project, dose response (AID 493073); type: functional;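 also: SK-MEL-5 melanoma cells with luciferase driven by the MITF target TRPM1 promoter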
T3 sequence (O75030 whole entry): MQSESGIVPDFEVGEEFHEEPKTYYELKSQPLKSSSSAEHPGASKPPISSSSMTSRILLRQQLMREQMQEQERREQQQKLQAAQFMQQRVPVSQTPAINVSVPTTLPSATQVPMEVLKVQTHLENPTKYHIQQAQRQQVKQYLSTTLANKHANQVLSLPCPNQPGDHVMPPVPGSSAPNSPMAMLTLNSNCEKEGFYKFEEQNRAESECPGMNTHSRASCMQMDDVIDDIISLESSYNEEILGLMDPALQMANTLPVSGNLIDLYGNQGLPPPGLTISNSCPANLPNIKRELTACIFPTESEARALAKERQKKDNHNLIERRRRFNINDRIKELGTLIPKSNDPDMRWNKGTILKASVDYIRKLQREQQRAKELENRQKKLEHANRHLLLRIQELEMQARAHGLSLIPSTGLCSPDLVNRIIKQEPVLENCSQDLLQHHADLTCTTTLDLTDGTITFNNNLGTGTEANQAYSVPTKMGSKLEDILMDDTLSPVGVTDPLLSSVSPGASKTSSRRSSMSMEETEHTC

[15] = molecular target: T4, Replicative DNA helicase DnaB (Mycobacterium tuberculosis, UniProt P9WMR3); assay: DnaB intein splicing inhibitors, dose response, biochemical, cell-free fluorescence (AID 449749); type: functional
T4 sequence (P9WMR3 whole entry): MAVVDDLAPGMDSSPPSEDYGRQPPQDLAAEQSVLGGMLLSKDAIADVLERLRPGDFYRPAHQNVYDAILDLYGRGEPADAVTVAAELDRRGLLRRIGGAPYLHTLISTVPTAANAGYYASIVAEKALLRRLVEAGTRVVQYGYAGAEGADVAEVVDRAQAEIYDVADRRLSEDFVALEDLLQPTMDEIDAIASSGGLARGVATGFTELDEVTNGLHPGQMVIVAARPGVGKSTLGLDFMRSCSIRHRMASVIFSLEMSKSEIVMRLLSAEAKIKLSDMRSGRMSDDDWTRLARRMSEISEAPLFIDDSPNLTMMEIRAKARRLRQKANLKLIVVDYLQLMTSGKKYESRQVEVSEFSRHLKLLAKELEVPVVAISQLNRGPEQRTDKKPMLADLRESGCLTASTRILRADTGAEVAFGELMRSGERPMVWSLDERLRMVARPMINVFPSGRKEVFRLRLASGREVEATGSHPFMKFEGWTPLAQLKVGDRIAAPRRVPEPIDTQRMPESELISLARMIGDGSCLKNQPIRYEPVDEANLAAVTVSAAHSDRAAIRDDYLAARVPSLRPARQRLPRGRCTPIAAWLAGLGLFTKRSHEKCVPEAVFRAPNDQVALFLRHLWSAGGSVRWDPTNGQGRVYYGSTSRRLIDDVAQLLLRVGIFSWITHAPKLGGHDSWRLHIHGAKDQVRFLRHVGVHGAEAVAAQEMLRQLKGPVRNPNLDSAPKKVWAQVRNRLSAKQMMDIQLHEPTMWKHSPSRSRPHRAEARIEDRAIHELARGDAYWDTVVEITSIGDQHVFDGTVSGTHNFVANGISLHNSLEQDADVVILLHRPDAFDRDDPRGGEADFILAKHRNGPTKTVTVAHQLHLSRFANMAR

[16] = molecular target: T5, Heat shock factor protein 1 (Mus musculus, UniProt P38532); assay: enhancement of HSF1-driven luciferase signal – cell-based, NIH3T3, luminescence, dose retest, confirmation (AID 435004); type: functional;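 also: stress induced by proteasome inhibitor MG132 added 30 min after compound; luciferase reporter driven by HSF1 response element in NIH3T3 cells; actives raise luminescence as potentiators of the MG132 stress response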
T5 sequence (P38532 whole entry): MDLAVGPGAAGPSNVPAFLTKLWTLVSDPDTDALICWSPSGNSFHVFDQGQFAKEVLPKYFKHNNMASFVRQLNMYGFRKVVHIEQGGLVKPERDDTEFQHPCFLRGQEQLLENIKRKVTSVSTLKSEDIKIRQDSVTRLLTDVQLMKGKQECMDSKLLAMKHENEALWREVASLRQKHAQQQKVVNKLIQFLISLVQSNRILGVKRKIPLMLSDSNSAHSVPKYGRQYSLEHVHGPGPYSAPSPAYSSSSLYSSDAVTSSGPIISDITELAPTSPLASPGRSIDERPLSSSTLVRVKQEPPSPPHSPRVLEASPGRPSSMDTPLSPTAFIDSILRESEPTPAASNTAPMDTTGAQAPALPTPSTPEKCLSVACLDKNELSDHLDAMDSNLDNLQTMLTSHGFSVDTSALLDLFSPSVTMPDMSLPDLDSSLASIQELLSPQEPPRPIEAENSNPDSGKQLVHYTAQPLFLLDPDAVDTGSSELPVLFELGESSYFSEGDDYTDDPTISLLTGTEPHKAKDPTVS

Protein RecA = molecular target: T6, Protein RecA (Mycobacterium tuberculosis, UniProt P9WHJ3); assay: Fluorescence Cell-Free Homogeneous Dose Retest to Identify Inhibitors of RecA-Intein Splicing Activity. [Related pubchem assays (depositor defined):AID2097, AID2223, AID489010, AID492950]; type: functional
T6 sequence (P9WHJ3 whole entry): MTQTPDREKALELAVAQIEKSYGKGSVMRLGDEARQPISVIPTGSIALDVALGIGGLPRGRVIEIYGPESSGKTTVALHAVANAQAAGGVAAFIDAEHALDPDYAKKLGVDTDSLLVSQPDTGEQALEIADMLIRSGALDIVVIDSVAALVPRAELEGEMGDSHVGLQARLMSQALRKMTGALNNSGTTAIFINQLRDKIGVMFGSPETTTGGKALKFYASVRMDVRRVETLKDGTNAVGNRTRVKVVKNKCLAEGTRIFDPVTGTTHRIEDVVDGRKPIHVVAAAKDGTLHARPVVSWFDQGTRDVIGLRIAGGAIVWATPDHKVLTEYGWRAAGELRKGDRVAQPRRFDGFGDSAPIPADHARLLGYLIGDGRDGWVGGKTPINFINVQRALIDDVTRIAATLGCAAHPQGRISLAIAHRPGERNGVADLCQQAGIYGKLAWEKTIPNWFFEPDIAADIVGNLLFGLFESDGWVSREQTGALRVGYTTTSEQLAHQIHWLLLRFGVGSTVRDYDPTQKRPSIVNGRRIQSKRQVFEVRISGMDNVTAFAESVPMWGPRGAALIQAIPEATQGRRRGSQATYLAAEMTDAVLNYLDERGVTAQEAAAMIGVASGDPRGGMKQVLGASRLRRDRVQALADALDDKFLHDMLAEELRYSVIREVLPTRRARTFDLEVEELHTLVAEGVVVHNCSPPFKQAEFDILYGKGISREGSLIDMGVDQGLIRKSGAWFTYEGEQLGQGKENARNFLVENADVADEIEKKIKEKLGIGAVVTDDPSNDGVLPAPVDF

[17] = molecular target: T7, Alkaline phosphatase, tissue-nonspecific isozyme (Homo sapiens, UniProt P05186); assay: potency against alkaline phosphatase TNAP – biochemical, luminescent, dose response, SAR follow-up (AID 1056)
T7 sequence (P05186 whole entry): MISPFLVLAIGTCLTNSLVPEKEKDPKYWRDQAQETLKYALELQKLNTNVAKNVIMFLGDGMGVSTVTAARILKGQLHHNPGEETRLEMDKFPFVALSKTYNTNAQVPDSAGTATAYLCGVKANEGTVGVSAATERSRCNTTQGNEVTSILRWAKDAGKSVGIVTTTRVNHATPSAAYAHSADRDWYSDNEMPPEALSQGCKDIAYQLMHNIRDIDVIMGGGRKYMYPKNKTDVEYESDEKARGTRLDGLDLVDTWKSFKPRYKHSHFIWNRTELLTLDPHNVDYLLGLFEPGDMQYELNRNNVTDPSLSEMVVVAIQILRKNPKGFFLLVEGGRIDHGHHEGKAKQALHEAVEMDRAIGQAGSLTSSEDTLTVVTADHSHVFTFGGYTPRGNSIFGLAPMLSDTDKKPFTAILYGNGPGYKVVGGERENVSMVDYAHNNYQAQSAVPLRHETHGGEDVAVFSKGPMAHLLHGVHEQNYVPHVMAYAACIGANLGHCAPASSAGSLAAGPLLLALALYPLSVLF

[18] = molecular target: Glyceraldehyde-3-phosphate dehydrogenase (Homo sapiens, UniProt P04406)
Glyceraldehyde-3-phosphate dehydrogenase, sequence (P04406 whole entry): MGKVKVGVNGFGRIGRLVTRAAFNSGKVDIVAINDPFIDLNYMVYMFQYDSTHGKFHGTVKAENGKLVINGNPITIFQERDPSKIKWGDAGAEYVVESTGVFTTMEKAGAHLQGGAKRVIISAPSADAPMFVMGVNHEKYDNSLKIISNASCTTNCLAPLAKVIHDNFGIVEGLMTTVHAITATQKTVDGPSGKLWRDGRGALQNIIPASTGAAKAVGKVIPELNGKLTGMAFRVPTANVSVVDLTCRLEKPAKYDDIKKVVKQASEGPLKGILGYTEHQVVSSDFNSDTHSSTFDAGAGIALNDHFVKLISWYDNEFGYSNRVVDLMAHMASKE

[19] = molecular target: Alkaline phosphatase, placental type (Homo sapiens, UniProt P05187); assay: human placental alkaline phosphatase inhibition – biochemical, luminescence, confirmation (AID 1512); type: functional
Alkaline phosphatase, placental type, sequence (P05187 whole entry): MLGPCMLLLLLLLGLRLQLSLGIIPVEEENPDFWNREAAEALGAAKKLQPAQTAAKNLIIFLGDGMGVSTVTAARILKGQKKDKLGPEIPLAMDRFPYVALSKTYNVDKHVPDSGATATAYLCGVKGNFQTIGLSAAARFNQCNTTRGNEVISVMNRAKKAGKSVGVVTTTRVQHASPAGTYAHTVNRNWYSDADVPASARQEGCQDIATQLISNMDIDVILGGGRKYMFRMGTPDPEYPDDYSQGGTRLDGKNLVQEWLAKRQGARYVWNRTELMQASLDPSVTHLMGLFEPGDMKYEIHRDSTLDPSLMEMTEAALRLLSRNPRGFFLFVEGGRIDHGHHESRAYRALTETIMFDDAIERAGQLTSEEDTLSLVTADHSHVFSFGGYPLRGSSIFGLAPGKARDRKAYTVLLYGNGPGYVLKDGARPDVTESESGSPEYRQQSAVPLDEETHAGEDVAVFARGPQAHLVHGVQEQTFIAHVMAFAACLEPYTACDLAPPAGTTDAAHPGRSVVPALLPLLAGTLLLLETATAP

Compound | IC50 (HEK293 [6]) | IC50 (HEK293 [8]) | EC50 [9] | EC50 (HEK293 [10]) | IC50 (HEK293 [12]) | IC50 (HEK293 [13]) | IC50 [17] | IC50 [19] | other results
Cc1cc(C)c2c(=O)n(CC(=O)NCCCN3CCN(c4ccccc4F)CC3)sc2n1 |  |  |  |  |  |  |  |  | IC50 [1]: 48.8 µM (active); EC50 [2]: 17 µM (active); IC50 [3]: 12.4 µM (active); IC50 (Large T antigen): 14.3 µM (active); EC50 [4]: 18 µM (active); EC50 [5]: 0.0013 µM (active)
Cc1cc(NC(=O)CCS(=O)(=O)c2nc(-c3ccccc3)cc(C(F)(F)F)n2)no1 | > 20 µM (inactive) | 6.11 µM (active) | > 20 µM (inactive) | > 20 µM (inactive) | > 20 µM (inactive) | 8.24 µM (inactive) |  |  | EC50 [7]: > 20 µM (not active); EC50 [11]: 9.01 µM (active)
Cc1ccc(C2=NN(C(=O)CCl)C(c3cccs3)C2)o1 (centres undefined) | > 20 µM (inactive) | 2.11 µM (active) | 8.81 µM (active) | 8.03 µM (active) | > 20 µM (inactive) | 4.05 µM (active) |  |  | AC50 [14]: 6.1 µM (active); AC50 [15]: 1.52 µM (active); EC50 [16]: 35.7 µM (inconclusive); EC50 (Protein RecA): 1.51 µM (active)
CCS(=O)(=O)c1nc(NC(C)=O)n[nH]1 |  |  |  |  |  |  | 94.8 µM (active) and > 100 µM (inactive) | > 100 µM (inactive) | IC50 [18]: > 100 µM (not active)
O=C(CSc1nnc(-c2ccncc2)n1-c1ccc(Cl)cc1)c1ccc(O)c(O)c1 |  |  |  |  |  |  | 38.7 µM (active) | 6.63 µM (active) | 
